Positions of bridges follow the written chain, without caps; N, C: chain ends. Non-standard residues stand in square brackets, D forms with d. Residues, ends and D or L forms follow the SMILES beside them. *: point of attachment. hPhe(3,5-F2-4-CF3) = N[C@@H](CCc1cc(F)c(C(F)(F)F)c(F)c1)C(=O)O; hPhe(3-Cl-4-CF3) = N[C@@H](CCc1ccc(C(F)(F)F)c(Cl)c1)C(=O)O; hPhe(3-F,4-CF3) = N[C@@H](CCc1ccc(C(F)(F)F)c(F)c1)C(=O)O; Piperazinyl(4-(3-oxetanyl)) = C1OCC1N1CCN(*)CC1; 3Oxa8azabicyclo(3.2.1)octane = C1CC2COCC1N2*; NMeAbu(4,4,4-F3) = CN[C@@H](CC(F)(F)F)C(=O)O; NMePhe(4-Me) = CN[C@@H](Cc1ccc(C)cc1)C(=O)O; NMeGly(cPent) = CN[C@H](C(=O)O)C1CCCC1; NMeGly(cBu) = CN[C@H](C(=O)O)C1CCC1; NMeCha = CN[C@@H](CC1CCCCC1)C(=O)O; NEtLeu = CCN[C@@H](CC(C)C)C(=O)O; NMeChg = CN[C@H](C(=O)O)C1CCCCC1; NMeI = CC[C@H](C)[C@H](NC)C(=O)O; NMeD = CN[C@@H](CC(=O)O)C(=O)O; NMeL = CN[C@@H](CC(C)C)C(=O)O; NMeNva = CCC[C@H](NC)C(=O)O; NMeV = CN[C@H](C(=O)O)C(C)C; Iva = CC[C@](C)(N)C(=O)O; NMeA = CN[C@@H](C)C(=O)O; Piperidide = C1CCN(*)CC1; Pyrrolidide = C1CCN(*)C1; Ac5c = NC1(C(=O)O)CCCC1; Aze = O=C(O)[C@@H]1CCN1; X1 = FC1(F)CN(*)CC1(F)F; X14 = CC1(C)CCN(*)C1; NEtG = CCNCC(=O)O; Sar = CNCC(=O)O
Experiments:
[1] = target: T1, Kras and SOS1 (biotin-tagged human Kras loaded with GDP, His-tagged human SOS1) (Homo sapiens, UniProt P01116, G12D); experiment: Protein-protein interaction inhibition between Kras and SOS1 (KrasGl2D-SOS PPI) using AlphaScreen; format: binding; conditions: AlphaScreen; biotin-tagged human Kras loaded with GDP, His-tagged human SOS1; read-out: KRAS G12D-SOS PPI IC50
T1 construct: made in house; host or cells: E. coli (stated for Kras only)
T1 sequence (P01116 1-188 isoform P01116-2 G12D): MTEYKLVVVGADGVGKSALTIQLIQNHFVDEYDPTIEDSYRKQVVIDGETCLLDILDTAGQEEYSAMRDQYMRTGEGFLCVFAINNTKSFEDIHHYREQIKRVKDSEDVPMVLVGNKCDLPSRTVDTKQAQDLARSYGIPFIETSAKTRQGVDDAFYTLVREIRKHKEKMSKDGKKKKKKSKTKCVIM
In short: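 Kras was produced in E. coli, purified, then loaded with GDP. It was paired via streptavidin acceptor beads with His-SOS1 held on nickel donor beads, and proximity signal at 520-620 nm was read after 680 nm illumination.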

[2] = tested on: Human pancreatic cancer cell line AsPC-1; experiment: Measurement of AsPC-1 cell growth inhibition (AsPC-1 CGI); format: cell-based; conditions: 96 h
In short: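 AsPC-1 cells in 15% FBS RPMI-1640 were exposed to test compound for 96 hours at 37° C, with CellTiter-Glo as endpoint.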

SMILES | IC50 [1] [nM] | IC50 [2] [nM]
CC[C@H](C)[C@@H]1NC(=O)[C@H](CC(C)C)N(C)C(=O)C[C@@H](C(=O)N2CCCCC2)N(C)C(=O)[C@H](C2CCCCC2)N(C)C(=O)C2(CCCC2)NC(=O)[C@@H]2CCCN2C(=O)[C@H](CCc2ccc(C(F)(F)F)c(Cl)c2)NC(=O)CN(CC)C(=O)[C@H](CC2CCCCC2)N(C)C(=O)CN(C)C(=O)CN(C)C1=O [Compound 1203] ([NMeL]I[Sar][Sar][NMeCha][NEtG][hPhe(3-Cl-4-CF3)]P[Ac5c][NMeChg][NMeD]-Piperidide; lactam N-11) | 2.1 | 100 to 500
CC[C@H](C)[C@@H]1NC(=O)[C@H](CC(C)C)N(C)C(=O)C[C@@H](C(=O)N2CC(F)(F)C(F)(F)C2)N(C)C(=O)[C@H](C2CCCCC2)N(C)C(=O)C2(CCCC2)NC(=O)[C@@H]2CCCN2C(=O)[C@H](CCc2ccc(C(F)(F)F)c(Cl)c2)NC(=O)CN(C)C(=O)[C@H](CC2CCCCC2)N(C)C(=O)CN(C)C(=O)CN(C)C1=O [Compound 1207] ([NMeL]I[Sar][Sar][NMeCha][Sar][hPhe(3-Cl-4-CF3)]P[Ac5c][NMeChg][NMeD]-X1; lactam N-11) | 2.7 | 100 to 500
CC[C@H](C)[C@@H]1NC(=O)[C@H](CC(C)C)N(C)C(=O)C[C@@H](C(=O)N2CCCCC2)N(C)C(=O)[C@H](C2CCCCC2)N(C)C(=O)C2(CCCC2)NC(=O)[C@@H]2CCCN2C(=O)[C@H](CCc2ccc(C(F)(F)F)c(Cl)c2)NC(=O)CN(C)C(=O)[C@H](CC2CCCCC2)N(C)C(=O)CN(CC)C(=O)CN(C)C1=O [Compound 1227] ([NMeL]I[Sar][NEtG][NMeCha][Sar][hPhe(3-Cl-4-CF3)]P[Ac5c][NMeChg][NMeD]-Piperidide; lactam N-11) | 1.3 | 100 to 500
CC[C@H](C)[C@@H]1NC(=O)[C@H](CC(F)(F)F)N(C)C(=O)C[C@@H](C(=O)N2CCCC2)N(C)C(=O)[C@H](C2CCCCC2)N(C)C(=O)C2(CCCC2)NC(=O)[C@@H]2CCCN2C(=O)[C@H](CCc2cc(F)c(C(F)(F)F)c(F)c2)NC(=O)CN(C)C(=O)[C@H](CC2CCCCC2)N(C)C(=O)CN(C)C(=O)CN(C)C1=O [Compound 1228] ([NMeAbu(4,4,4-F3)]I[Sar][Sar][NMeCha][Sar][hPhe(3,5-F2-4-CF3)]P[Ac5c][NMeChg][NMeD]-Pyrrolidide; lactam N-11) | 0.59 | 20 to 50
CC[C@H](C)[C@@H]1NC(=O)[C@H](CC(C)C)N(C)C(=O)C[C@@H](C(=O)N2C3CCC2COC3)N(C)C(=O)[C@H](C(C)C)N(C)C(=O)C2(CCCC2)NC(=O)[C@@H]2CCCN2C(=O)[C@H](CCc2ccc(C(F)(F)F)c(Cl)c2)NC(=O)CN(C)C(=O)[C@H](CC2CCCCC2)N(C)C(=O)[C@@H]2CCN2C(=O)[C@H](C)N(C)C1=O [Compound 1235] ([NMeL]I[NMeA][Aze][NMeCha][Sar][hPhe(3-Cl-4-CF3)]P[Ac5c][NMeV][NMeD]-{3Oxa8azabicyclo(3.2.1)octane}; lactam N-11) | 5.5 | 100 to 500
CC[C@H](C)[C@@H]1NC(=O)[C@H](CC(C)C)N(CC)C(=O)C[C@@H](C(=O)N(C)C)N(C)C(=O)[C@H](C2CCCC2)N(C)C(=O)C2(CCCC2)NC(=O)[C@@H]2CCCN2C(=O)[C@H](CCc2ccc(C(F)(F)F)c(F)c2)NC(=O)CN(C)C(=O)[C@H](CC2CCCCC2)N(C)C(=O)[C@@H]2CCN2C(=O)[C@H](C)NC1=O [Compound 1252] ([NEtLeu]IA[Aze][NMeCha][Sar][hPhe(3-F,4-CF3)]P[Ac5c][NMeGly(cPent)][NMeD]-NMe2; lactam N-11) | 2.5 | 100 to 500
CCC[C@H]1C(=O)N[C@@H]([C@@H](C)CC)C(=O)N(C)CC(=O)N(C)CC(=O)N(C)[C@@H](CC2CCCCC2)C(=O)N(C)CC(=O)N[C@@H](CCc2cc(F)c(C(F)(F)F)c(F)c2)C(=O)N2CCC[C@H]2C(=O)NC2(CCCC2)C(=O)N(C)[C@@H](C2CCCCC2)C(=O)N(C)[C@H](C(=O)N2CCCC2)CC(=O)N1C [Compound 1253] ([NMeNva]I[Sar][Sar][NMeCha][Sar][hPhe(3,5-F2-4-CF3)]P[Ac5c][NMeChg][NMeD]-Pyrrolidide; lactam N-11) | 0.81 | 20 to 50
CC[C@H](C)[C@@H]1NC(=O)[C@H](CC(C)C)N(C)C(=O)C[C@@H](C(=O)N2CCCCC2)N(C)C(=O)[C@H](C2CCCCC2)N(C)C(=O)C2(CCCC2)NC(=O)[C@@H]2CCCN2C(=O)[C@H](CCc2ccc(C(F)(F)F)c(Cl)c2)NC(=O)CN(C)C(=O)[C@H](CC2CCCCC2)N(C)C(=O)CN(C)C(=O)CN(CC)C1=O [Compound 1255] ([NMeL]I[NEtG][Sar][NMeCha][Sar][hPhe(3-Cl-4-CF3)]P[Ac5c][NMeChg][NMeD]-Piperidide; lactam N-11) | 1.4 | 100 to 500
CC[C@H](C)[C@@H]1NC(=O)[C@H](CC(C)C)N(C)C(=O)C[C@@H](C(=O)N2CCC(C)(C)C2)NC(=O)[C@H]([C@@H](C)CC)N(C)C(=O)C2(CCCC2)NC(=O)[C@@H]2CCCN2C(=O)[C@H](CCc2ccc(C(F)(F)F)c(Cl)c2)NC(=O)CN(C)C(=O)[C@H](CC2CCCCC2)N(C)C(=O)CN(C)C(=O)CN(C)C1=O [Compound 1273] ([NMeL]I[Sar][Sar][NMeCha][Sar][hPhe(3-Cl-4-CF3)]P[Ac5c][NMeI]D-X14; lactam N-11) | 7.2 | 100 to 500
CC[C@H](C)[C@@H]1NC(=O)[C@H](C2CCC2)N(C)C(=O)C[C@@H](C(=O)N2CCCC2)N(C)C(=O)[C@H](C2CCCCC2)N(C)C(=O)C2(CCCC2)NC(=O)[C@@H]2CCCN2C(=O)[C@H](CCc2cc(F)c(C(F)(F)F)c(F)c2)NC(=O)CN(C)C(=O)[C@H](CC2CCCCC2)N(C)C(=O)CN(C)C(=O)CN(C)C1=O [Compound 1275] ([NMeGly(cBu)]I[Sar][Sar][NMeCha][Sar][hPhe(3,5-F2-4-CF3)]P[Ac5c][NMeChg][NMeD]-Pyrrolidide; lactam N-11) | 0.65 | 20 to 50
CC[C@H](C)[C@@H]1NC(=O)[C@H](CC(F)(F)F)N(C)C(=O)C[C@@H](C(=O)N2CCCC2)N(C)C(=O)[C@H](C2CCCCC2)N(C)C(=O)C2(CCCC2)NC(=O)[C@@H]2CCCN2C(=O)[C@H](CCc2cc(F)c(C(F)(F)F)c(F)c2)NC(=O)CN(C)C(=O)[C@H](Cc2ccc(C)cc2)N(C)C(=O)CN(C)C(=O)CN(C)C1=O [Compound 1278] ([NMeAbu(4,4,4-F3)]I[Sar][Sar][NMePhe(4-Me)][Sar][hPhe(3,5-F2-4-CF3)]P[Ac5c][NMeChg][NMeD]-Pyrrolidide; lactam N-11) | 0.65 | 20 to 50
CC[C@H](C)[C@@H]1NC(=O)[C@H](CC(C)C)N(C)C(=O)C[C@@H](C(=O)N2CCN(C3COC3)CC2)N(C)C(=O)[C@H](C2CCCCC2)N(C)C(=O)C2(CCCC2)NC(=O)[C@@H]2CCCN2C(=O)[C@H](CCc2ccc(C(F)(F)F)c(Cl)c2)NC(=O)CN(C)C(=O)[C@H](CC2CCCCC2)N(C)C(=O)CN(C)C(=O)CN(C)C1=O [Compound 1284] ([NMeL]I[Sar][Sar][NMeCha][Sar][hPhe(3-Cl-4-CF3)]P[Ac5c][NMeChg][NMeD]-{Piperazinyl(4-(3-oxetanyl))}; lactam N-11) | 0.69 | 100 to 500
CC[C@H](C)[C@@H]1NC(=O)[C@H](CC(C)C)N(C)C(=O)C[C@@H](C(=O)N2CCCCC2)N(C)C(=O)[C@H](C2CCCCC2)N(C)C(=O)[C@](C)(CC)NC(=O)[C@@H]2CCCN2C(=O)[C@H](CCc2ccc(C(F)(F)F)c(Cl)c2)NC(=O)CN(C)C(=O)[C@H](CC2CCCCC2)N(C)C(=O)CN(C)C(=O)CN(C)C1=O [Compound 1302] ([NMeL]I[Sar][Sar][NMeCha][Sar][hPhe(3-Cl-4-CF3)]P[Iva][NMeChg][NMeD]-Piperidide; lactam N-11) | 0.75 | 100 to 500

Reference: patent US12371454B2, “Cyclic peptide compound having Kras inhibitory action” (priority 2019, dated 2025)
